Assay results from BindingDB's records for doi:10.1002/cmdc.202100576 (Experimental Drug Development Centre, 2021).
pIC50, pKi: −log10 of the molar value. “And” between values parts separate entries of the source, which are not always exact repeats. Identical values can stand only once.

biological target: Replicase polyprotein 1ab (Severe acute respiratory syndrome coronavirus 2, UniProt P0DTD1); assay: Various Assay

In order of falling pIC50:
1. O=C[C@H](CC1CCNC1=O)NC(=O)[C@H](Cc1ccccc1)NC(=O)c1cc2ccccc2[nH]1 (some centres undefined) [cmdc.202100576, 18b]  7.47
2. CC(C)[C@H](NC(=O)c1cc2ccccc2[nH]1)C(=O)N[C@@H](Cc1ccccc1)C(=O)N[C@H](C=O)CC1CCNC1=O (some centres undefined) [cmdc.202100576, 18d]  7.17
3. O=C[C@H](CC1CCNC1=O)NC(=O)[C@H](Cc1ccccc1)NC(=O)c1ccc2c(c1)OCO2 (some centres undefined) [cmdc.202100576, 18e]  7.11

biological target: Replicase polyprotein 1ab (Middle East respiratory syndrome-related coronavirus (isolate United Kingdom/H123990006/2012), UniProt K9N7C7); assay: Various Assay

For `CC(C)C[C@H](NC(=O)OC1CCN(C(=O)OC(C)(C)C)CC1)C(=O)N[C@@H](C[C@@H]1CCNC1=O)C(O)S(=O)(=O)O` (some centres undefined) [cmdc.202100576, 20b], the pIC50 was 6.52 and 6.22.

`CC(C)C[C@H](NC(=O)OC1CCN(S(C)(=O)=O)CC1)C(=O)N[C@@H](C[C@@H]1CCNC1=O)C(O)S(=O)(=O)O` (some centres undefined) [cmdc.202100576, 20c] and `CC(C)C[C@H](NC(=O)OCCc1cccc(Cl)c1)C(=O)N[C@@H](C[C@@H]1CCNC1=O)C(O)S(=O)(=O)O` (some centres undefined) [cmdc.202100576, 20f] are within 0.2 log units of each other in pIC50: 6.30 for the first, 6.15 for the second.

First: CC(C)C[C@H](NC(=O)OC1(Cc2ccccc2)CCN(C(=O)OC(C)(C)C)CC1)C(=O)N[C@@H](C[C@@H]1CCNC1=O)C(O)S(=O)(=O)O (some centres undefined) [cmdc.202100576, 20d]
Second: O=C(NCc1ccccc1)C(=O)[C@H](C[C@@H]1CCCNC1=O)NC(=O)[C@H](CC1CCCCC1)NC(=O)c1cc2ccccc2[nH]1 [cmdc.202100576, 23e]
The pIC50 of the first is 2.48 log units lower: 6.22 for the first, 8.70 for the second. The second is the more potent here.

Compared with `O=C(NC1CCCCC1)C(=O)[C@H](C[C@@H]1CCCNC1=O)NC(=O)[C@H](CC1CCCCC1)NC(=O)c1cc2ccccc2o1` [cmdc.202100576, 23b], `O=C(NCc1ccccc1)C(=O)[C@H](C[C@@H]1CCCNC1=O)NC(=O)[C@H](CC1CCCCC1)NC(=O)c1cnc2ccccc2n1` [cmdc.202100576, 23f] is lower in pIC50: greater than 9.00 for the first, 8.30 for the second. The first is the more potent here.

Compared with `O=C(NCc1ccccc1)C(=O)[C@H](C[C@@H]1CCCNC1=O)NC(=O)[C@H](Cc1ccccc1)NC(=O)c1cc2ccccc2[nH]1` [cmdc.202100576, 23c], `O=C(NCc1ccccc1)C(=O)[C@H](C[C@@H]1CCCNC1=O)NC(=O)[C@H](Cc1ccccc1)NC(=O)c1cnc2ccccc2n1` [cmdc.202100576, 23d] is lower in pIC50: greater than 9.00 for the first, 8.70 for the second. The first is the more potent here.

biological target: Replicase polyprotein 1ab (Severe acute respiratory syndrome coronavirus, UniProt P0C6X7); assay: Various Assay

In order of rising pIC50:
1. O=C1C(=O)N(Cc2ccc3ccccc3c2)c2ccc(C(=O)N3CCCCC3)cc21 [cmdc.202100576, 13f]  4.06
2. O=C1c2c(O)cc(O)cc2O[C@@H](c2ccc(O)c(O)c2)[C@@H]1O [cmdc.202100576, 15]  4.14
3. O=C1C(=O)N(Cc2ccc3ccccc3c2)c2ccc(C(=O)N3CCCC3)cc21 [cmdc.202100576, 13e]  4.15
4. CN1C(=O)C(=O)c2cc(C(=O)N3CCOCC3)ccc21 [cmdc.202100576, 13d]  4.44
5. O=c1c(O[C@@H]2O[C@H](CO[C@@H]3OC[C@H](O)[C@H](O)[C@H]3O)[C@@H](O)[C@H](O)[C@H]2O)c(-c2ccc(O)c(O)c2)oc2cc(O)cc(O)c12 [cmdc.202100576, 12c]  4.50
6. O=C1C(=O)N(Cc2ccccc2)c2ccc(C(=O)N3CCCC3)cc21 [cmdc.202100576, 13c]  4.64
7. CC1CCN(C(=O)c2ccc3c(c2)C(=O)C(=O)N3Cc2ccc3ccccc3c2)CC1 [cmdc.202100576, 13b]  4.70
8. CC(C)C[C@H]1C(=O)N[C@H](C=O)CCC(=O)NCCCn2cc(nn2)C[C@@H]1CC(=O)OCc1ccccc1 [cmdc.202100576, 16c]  4.81
9. Cc1cc(C(=O)N[C@@H](C)C(=O)N[C@H](C(=O)N[C@@H](CC(C)C)C(=O)N[C@H](C=CC(=O)OCc2ccccc2)C[C@@H]2CCNC2=O)C(C)C)no1 [the N3 Compound]  5.05
10. CC(C)C[C@@H](NC(=O)OCc1ccccc1)C(=O)N[C@H](CC1CCNC1=O)C(=O)C(=O)NC(C)C (some centres undefined) [cmdc.202100576, 14d]  5.33
11. CC(C)C[C@@H](NC(=O)OCc1ccccc1)C(=O)N[C@@H](C=O)CC1CCNC1=O (some centres undefined) [cmdc.202100576, 14b]  5.46
12. O=C(Sc1nnc(C(F)(F)F)[nH]1)C1CCC(C#Cc2ccccc2)O1 (centres undefined) [cmdc.202100576, 7c]  5.52
13. COc1cccc2[nH]c(C(=O)N[C@@H](CC(C)C)C(=O)N[C@@H](C[C@@H]3CCNC3=O)C(C)=O)cc12 [WO2006061714, P38.5]  5.64
14. Fc1ccc(SSc2nccs2)cc1 [cmdc.202100576, 17f]  5.66
15. O=[N+]([O-])c1ccccc1SSc1nccs1 [cmdc.202100576, 17d]  5.70
16. COC(=O)c1c[nH]c(SSc2ccccc2[N+](=O)[O-])n1 [cmdc.202100576, 17e]  5.70
17. O=C(Nc1ccc(N(C(=O)Cn2nnc3ccccc32)[C@H](C(=O)NCc2ccccc2)c2ccsc2)cc1)C1CC1 [cmdc.202100576, 19f]  5.70
18. CC(=O)Nc1cnc(SSc2ccccc2[N+](=O)[O-])s1 [cmdc.202100576, 17c]  5.72
19. CC(C)(C)c1ccc(N(C(=O)c2c[nH]cn2)[C@H](C(=O)NC2CCCC2)c2cccnc2)cc1 [cmdc.202100576, 19e]  5.77
20. CC(C)C(=O)Nc1ccc(N(C(=O)Cn2nnc3ccccc32)[C@H](C(=O)NCc2ccccc2)c2cccc(F)c2)cc1 [cmdc.202100576, 19d]  5.80
21. Cc1ccc(SSc2nccs2)cc1 [cmdc.202100576, 17b]  5.89
22. CC(C)C(=O)Nc1ccc(N(C(=O)Cn2nnc3ccccc32)[C@H](C(=O)NCc2ccccc2)c2ccc(O)cc2)cc1 [cmdc.202100576, 19c]  5.96
23. O=C(Oc1ccc(S(=O)(=O)c2ccc(OC(=O)C(Cl)=C(Cl)Cl)cc2Cl)cc1)C(Cl)=C(Cl)Cl [cmdc.202100576, 7b]  6.05
24. CC(C)C[C@@H](NC(=O)[C@H](Cc1cccc2ccccc12)NC(=O)OCc1ccccc1)C(=O)N[C@H](CC1CCNC1=O)C(=O)C(=O)NC(C)C (some centres undefined) [cmdc.202100576, 14f]  6.09
25. CC(C)C(=O)Nc1ccc(N(C(=O)Cn2nnc3ccccc32)[C@H](C(=O)NCc2ccccc2)c2ccc(Cl)c(F)c2)cc1 [cmdc.202100576, 19b]  6.10
26. CC(C)C[C@@H](NC(=O)[C@H](Cc1cccc2ccccc12)NC(=O)OCc1ccccc1)C(=O)N[C@@H](C=O)CC1CCNC1=O (some centres undefined) [cmdc.202100576, 14e]  6.64
27. COc1cccc2[nH]c(C(=O)N[C@@H](CC(C)C)C(=O)N[C@@H](C[C@@H]3CCNC3=O)C(=O)COC(=O)C3CC3)cc12 [WO2005113580-Ex-37]  6.79
28. O=C[C@H](CC1CCNC1=O)NC(=O)[C@H](Cc1ccccc1)NC(=O)c1cc2cc(F)ccc2[nH]1 (some centres undefined)  6.95
29. O=C[C@H](CC1CCNC1=O)NC(=O)[C@H](Cc1ccccc1)NC(=O)c1ccc2c(c1)OCO2 (some centres undefined) [cmdc.202100576, 18e]  7.00
30. COc1cccc2[nH]c(C(=O)N(C)[C@@H](CC(C)C)C(=O)N[C@@H](C[C@@H]3CCNC3=O)C(=O)CO)cc12 [WO2005113580-Ex-29]  7.08
31. CC(C)[C@H](NC(=O)c1cc2ccccc2[nH]1)C(=O)N[C@@H](Cc1ccccc1)C(=O)N[C@H](C=O)CC1CCNC1=O (some centres undefined) [cmdc.202100576, 18d]  7.30
32. C=C(N[C@H](C=O)CC1CCNC1=O)[C@H](Cc1ccccc1)NC(=O)[C@@H](NC(=O)c1cncc(F)c1)C(C)C (some centres undefined) [cmdc.202100576, 18c]  7.46
33. CC(C)C[C@H](NC(=O)c1nc2ccccc2[nH]1)C(=O)N[C@H](C=O)C[C@@H]1CCNC1=O [WO2006061714-ID-09]  7.52
34. O=C[C@H](CC1CCNC1=O)NC(=O)[C@H](Cc1ccccc1)NC(=O)c1cc2ccccc2[nH]1 (some centres undefined) [cmdc.202100576, 18b]  7.52
35. CC(C)C[C@H](NC(=O)[C@H](CN(C)C)NC(=O)OCc1ccccc1)C(=O)N[C@@H](C[C@@H]1CCNC1=O)C(=O)C(=O)NC(C)(C)C [cmdc.202100576, 22d]  8.15
36. CC(C)C[C@H](NC(=O)[C@H](CN1CCOCC1)NC(=O)OCc1ccccc1)C(=O)N[C@@H](C[C@@H]1CCNC1=O)C(=O)C(=O)NC(C)C [cmdc.202100576, 22e]  8.15
37. CC(C)C[C@H](NC(=O)[C@H](CN1CCC(F)CC1)NC(=O)OCc1ccccc1)C(=O)N[C@@H](C[C@@H]1CCNC1=O)C(=O)C(=O)NC(C)C [cmdc.202100576, 22f]  8.15
38. COC(C)[C@H](NC(=O)OCc1ccccc1)C(=O)N[C@@H](CC(C)C)C(=O)N[C@@H](C[C@@H]1CCNC1=O)C(=O)C(=O)NC(C)C (some centres undefined) [cmdc.202100576, 22c]  8.17
39. CC(C)(C)NC(=O)C(=O)[C@H](C[C@@H]1CCNC1=O)NC(=O)[C@H](CC1CCCCC1)NC(=O)[C@H](Cc1cccc2ccccc12)NC(=O)OCc1ccc(OCN2CCOCC2)cc1 [cmdc.202100576, 22b]  8.18

In order of rising pKi:
1. O=C(Oc1c(Cl)cc(Cl)cc1[N+](=O)[O-])c1cc(B(O)O)cc([N+](=O)[O-])c1 [cmdc.202100576, 4e]  5.16
2. O=C(Oc1ccc(OC(=O)c2cc(B(O)O)cc([N+](=O)[O-])c2)cc1)c1cc(B(O)O)cc([N+](=O)[O-])c1 [cmdc.202100576, 4b]  5.17
3. Nc1cc(B(O)O)cc(C(=O)OCc2cccc(B(O)O)c2)c1 [cmdc.202100576, 4c]  5.46
4. O=C(O)c1cc(O)cc(B(O)O)c1 [cmdc.202100576, 4d]  5.46
5. CC(C)C[C@H](NC(=O)[C@@H](NC(=O)OCc1ccccc1)C(C)OC(C)(C)C)C(=O)N[C@H](/C=C/C(=O)OC1CC1)C[C@@H]1CCNC1=O (some centres undefined) [cmdc.202100576, 5e]  7.00
6. CCOC(=O)/C=C/[C@@H](C[C@H]1CCNC1=O)NC(=O)[C@@H](CC(C)C)NC(=O)[C@H](NC(=O)OCc1ccccc1)C(C)OC(C)(C)C (some centres undefined) [cmdc.202100576, 5b]  7.24
7. COC(=O)/C=C/[C@H](C[C@@H]1CCNC1=O)NC(=O)[C@H](CC(C)C)NC(=O)[C@@H](NC(=O)OCc1ccccc1)C(C)NC(=O)C(C)(C)C (some centres undefined) [cmdc.202100576, 5f]  7.42
8. O=C(Nc1ccc(NC(=O)c2cc(B(O)O)cc([N+](=O)[O-])c2)cc1)c1cc(B(O)O)cc([N+](=O)[O-])c1 [acs.jmedchem.1c00409_ST.31]  7.66
